Source: PubChem BioAssay AID1259407 (Chemical Carcinogenesis Research Information System (CCRIS), 2018)
The source made the active and inactive calls. No rule for the calls is given here.

System: CCRIS mutagenicity, Ames/micronucleus/aberration tests
Test: CCRIS mutagenicity studies
[1] = Test System: AMES SALMONELLA TYPHIMURIUM, Strain/Indicator: TA98, Metabolic Activation: NONE, Method: PREINCUBATION
[2] = Test System: AMES SALMONELLA TYPHIMURIUM, Strain/Indicator: TA98, Metabolic Activation: RAT, LIVER, S-9, AROCLOR 1254, Method: PREINCUBATION
[3] = Test System: AMES SALMONELLA TYPHIMURIUM, Strain/Indicator: TA100, Metabolic Activation: RAT, LIVER, S-9, AROCLOR 1254, Method: PREINCUBATION

For `O=C1CCC(=O)O1`, the mutagenic call (Test System: AMES SALMONELLA TYPHIMURIUM, Strain/Indicator: TA97, Metabolic Activation: HAMSTER, LIVER, S-9, AROCLOR 1254 (10%), Method: PREINCUBATION) was “inactive; negative”, the mutagenic call (Test System: AMES SALMONELLA TYPHIMURIUM, Strain/Indicator: TA97, Metabolic Activation: HAMSTER, LIVER, S-9, AROCLOR 1254 (30%), Method: PREINCUBATION) was “inactive; negative” and the mutagenic call (Test System: AMES SALMONELLA TYPHIMURIUM, Strain/Indicator: TA97, Metabolic Activation: HAMSTER, LIVER, S-9, AROCLOR 1254, Method: PREINCUBATION) was “inactive; negative”. The mutagenic call (Test System: AMES SALMONELLA TYPHIMURIUM, Strain/Indicator: TA97, Metabolic Activation: NONE, Method: PREINCUBATION) was “inactive; negative”, the mutagenic call (Test System: AMES SALMONELLA TYPHIMURIUM, Strain/Indicator: TA97, Metabolic Activation: RAT, LIVER, S-9, AROCLOR 1254 (10%), Method: PREINCUBATION) was “inactive; negative” and the mutagenic call (Test System: AMES SALMONELLA TYPHIMURIUM, Strain/Indicator: TA97, Metabolic Activation: RAT, LIVER, S-9, AROCLOR 1254 (30%), Method: PREINCUBATION) was “inactive; negative”. For the same compound, the mutagenic call (Test System: AMES SALMONELLA TYPHIMURIUM, Strain/Indicator: TA97, Metabolic Activation: RAT, LIVER, S-9, AROCLOR 1254, Method: PREINCUBATION) was “inactive; negative”, the mutagenic call (Test System: AMES SALMONELLA TYPHIMURIUM, Strain/Indicator: TA98, Metabolic Activation: HAMSTER, LIVER, S-9, AROCLOR 1254 (10%), Method: PREINCUBATION) was “inactive; negative” and the mutagenic call (Test System: AMES SALMONELLA TYPHIMURIUM, Strain/Indicator: TA98, Metabolic Activation: HAMSTER, LIVER, S-9, AROCLOR 1254 (30%), Method: PREINCUBATION) was “inactive; negative”. For the same compound, the mutagenic call (Test System: AMES SALMONELLA TYPHIMURIUM, Strain/Indicator: TA98, Metabolic Activation: HAMSTER, LIVER, S-9, AROCLOR 1254, Method: PREINCUBATION) was “inactive; negative”, the mutagenic call [1] was “inactive; negative” and the mutagenic call (Test System: AMES SALMONELLA TYPHIMURIUM, Strain/Indicator: TA98, Metabolic Activation: RAT, LIVER, S-9, AROCLOR 1254 (10%), Method: PREINCUBATION) was “inactive; negative”. For the same compound, the mutagenic call (Test System: AMES SALMONELLA TYPHIMURIUM, Strain/Indicator: TA98, Metabolic Activation: RAT, LIVER, S-9, AROCLOR 1254 (30%), Method: PREINCUBATION) was “inactive; negative”, the mutagenic call [2] was “inactive; negative” and the mutagenic call (Test System: AMES SALMONELLA TYPHIMURIUM, Strain/Indicator: TA100, Metabolic Activation: HAMSTER, LIVER, S-9, AROCLOR 1254 (10%), Method: PREINCUBATION) was “inactive; negative”. The mutagenic call (Test System: AMES SALMONELLA TYPHIMURIUM, Strain/Indicator: TA100, Metabolic Activation: HAMSTER, LIVER, S-9, AROCLOR 1254 (30%), Method: PREINCUBATION) was “inactive; negative”, the mutagenic call (Test System: AMES SALMONELLA TYPHIMURIUM, Strain/Indicator: TA100, Metabolic Activation: HAMSTER, LIVER, S-9, AROCLOR 1254, Method: PREINCUBATION) was “inactive; negative” and the mutagenic call (Test System: AMES SALMONELLA TYPHIMURIUM, Strain/Indicator: TA100, Metabolic Activation: NONE, Method: PREINCUBATION) was “inactive; negative”. The mutagenic call (Test System: AMES SALMONELLA TYPHIMURIUM, Strain/Indicator: TA100, Metabolic Activation: RAT, LIVER, S-9, AROCLOR 1254 (10%), Method: PREINCUBATION) was “inactive; negative”, the mutagenic call (Test System: AMES SALMONELLA TYPHIMURIUM, Strain/Indicator: TA100, Metabolic Activation: RAT, LIVER, S-9, AROCLOR 1254 (30%), Method: PREINCUBATION) was “inactive; negative” and the mutagenic call [3] was “inactive; negative”. For the same compound, the mutagenic call (Test System: AMES SALMONELLA TYPHIMURIUM, Strain/Indicator: TA1535, Metabolic Activation: HAMSTER, LIVER, S-9, AROCLOR 1254 (10%), Method: PREINCUBATION) was “inactive; negative”, the mutagenic call (Test System: AMES SALMONELLA TYPHIMURIUM, Strain/Indicator: TA1535, Metabolic Activation: HAMSTER, LIVER, S-9, AROCLOR 1254 (30%), Method: PREINCUBATION) was “inactive; negative” and the mutagenic call (Test System: AMES SALMONELLA TYPHIMURIUM, Strain/Indicator: TA1535, Metabolic Activation: HAMSTER, LIVER, S-9, AROCLOR 1254, Method: PREINCUBATION) was “inactive; negative”. The mutagenic call (Test System: AMES SALMONELLA TYPHIMURIUM, Strain/Indicator: TA1535, Metabolic Activation: NONE, Method: PREINCUBATION) was “inactive; negative”, the mutagenic call (Test System: AMES SALMONELLA TYPHIMURIUM, Strain/Indicator: TA1535, Metabolic Activation: RAT, LIVER, S-9, AROCLOR 1254 (10%), Method: PREINCUBATION) was “inactive; negative” and the mutagenic call (Test System: AMES SALMONELLA TYPHIMURIUM, Strain/Indicator: TA1535, Metabolic Activation: RAT, LIVER, S-9, AROCLOR 1254 (30%), Method: PREINCUBATION) was “inactive; negative”. The mutagenic call (Test System: AMES SALMONELLA TYPHIMURIUM, Strain/Indicator: TA1535, Metabolic Activation: RAT, LIVER, S-9, AROCLOR 1254, Method: PREINCUBATION) was “inactive; negative”, the mutagenic call (Test System: AMES SALMONELLA TYPHIMURIUM, Strain/Indicator: TA1537, Metabolic Activation: HAMSTER, LIVER, S-9, AROCLOR 1254 (10%), Method: PREINCUBATION) was “inactive; negative” and the mutagenic call (Test System: AMES SALMONELLA TYPHIMURIUM, Strain/Indicator: TA1537, Metabolic Activation: HAMSTER, LIVER, S-9, AROCLOR 1254, Method: PREINCUBATION) was “inactive; negative”. The mutagenic call (Test System: AMES SALMONELLA TYPHIMURIUM, Strain/Indicator: TA1537, Metabolic Activation: NONE, Method: PREINCUBATION) was “inactive; negative”, the mutagenic call (Test System: AMES SALMONELLA TYPHIMURIUM, Strain/Indicator: TA1537, Metabolic Activation: RAT, LIVER, S-9, AROCLOR 1254 (10%), Method: PREINCUBATION) was “inactive; negative” and the mutagenic call (Test System: AMES SALMONELLA TYPHIMURIUM, Strain/Indicator: TA1537, Metabolic Activation: RAT, LIVER, S-9, AROCLOR 1254, Method: PREINCUBATION) was “inactive; negative”.
For `NC(=O)N(CC(=O)O)N=O`, the mutagenic call (Test System: E. COLI B, Strain/Indicator: H/R30R, Metabolic Activation: NONE) was “active; positive” and the mutagenic call (Test System: E. COLI B, Strain/Indicator: HS30R, Metabolic Activation: NONE) was “active; positive”.
For `Cc1nn(C)c(N)c1C(=O)c1ccccc1F`, the mutagenic call [2] was “active; positive”, the mutagenic call (Test System: AMES SALMONELLA TYPHIMURIUM, Strain/Indicator: TA98, Metabolic Activation: RAT, LIVER, S-9, AROCLOR 1254, Method: STANDARD PLATE) was “active; positive” and the mutagenic call (Test System: AMES SALMONELLA TYPHIMURIUM, Strain/Indicator: TA98, Metabolic Activation: RAT, LIVER, S-9, PHENOBARBITAL, Method: PREINCUBATION) was “active; positive”. The mutagenic call [3] was “active; positive”, the mutagenic call (Test System: AMES SALMONELLA TYPHIMURIUM, Strain/Indicator: TA100, Metabolic Activation: RAT, LIVER, S-9, AROCLOR 1254, Method: STANDARD PLATE) was “active; positive” and the mutagenic call (Test System: AMES SALMONELLA TYPHIMURIUM, Strain/Indicator: TA100, Metabolic Activation: RAT, LIVER, S-9, PHENOBARBITAL, Method: PREINCUBATION) was “active; positive”.
With `C=C1[C@@H](C)[C@H]2[C@H](Cc3ccccc3)NC(=O)[C@]23OC(=O)/C=C/[C@H](O)CCC[C@@H](C)C/C=C/[C@H]3[C@@H]1O` the mutagenic call (End Point: In vivo micronucleus, Test System: Micronucleated, binucleated and multinucleated hepatocytes, Species: Mouse, Strain/Sex: ddY/Male, Route: Intravenous) was “active; positive for micronucleated cells when agent administered before and after parti”.
For `O=[N+]([O-])c1ccc2c(c1)sc1ccccc12`, the mutagenic call (Test System: AMES SALMONELLA TYPHIMURIUM, Strain/Indicator: TA98(1,8-DNP6), Metabolic Activation: NONE, Method: PREINCUBATION) was “active; positive”, the mutagenic call (Test System: AMES SALMONELLA TYPHIMURIUM, Strain/Indicator: TA98(NR), Metabolic Activation: NONE, Method: PREINCUBATION) was “active; positive” and the mutagenic call (Test System: AMES SALMONELLA TYPHIMURIUM, Strain/Indicator: TA98(NR), Metabolic Activation: RAT LIVER S-9, 3-METHYLCHOLANTHRENE (10%), Method: PREINCUBATION) was “active; positive”. For the same compound, the mutagenic call [1] was “active; positive”.
